In PubChem BioAssay AID328 (DTP/NCI, 2004):
Values joined by “and” are separate entries in the source; they are usually repeats but may differ in a detail not shown here. Equal entries are not always repeated. Inconclusive results and toxic doses are left out. Rule for the calls: active = survival T/C of 150% or more; inactive = T/C below 125% in these data.

System: BDF1 mice, P388 leukemia ip, median survival T/C
Test: NCI In Vivo Anticancer Drug Screen. Data for tumor model P388 Leukemia (intraperitoneal) in B6D2F1 (BDF1) mice
Details: endpoint: median survival time, higher = longer survival
Outline: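 Each value expresses how treatment altered survival: treated-mouse outcome over vehicle-mouse outcome, both groups bearing the transplanted tumour.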

[1] = dose: 200.0 mg/kg/injection, schedule: Q01DX009 (ip), vehicle: Klucel (hydroxypropylcellulose) (HPC)
[2] = dose: 400.0 mg/kg/injection, schedule: Q01DX009 (ip), vehicle: Klucel (hydroxypropylcellulose) (HPC)
[3] = dose: 100.0 mg/kg/injection, schedule: Q01DX009 (ip), vehicle: saline with Tween-80
[4] = dose: 25.0 mg/kg/injection, schedule: Q01DX009 (ip), vehicle: saline with Tween-80
[5] = dose: 50.0 mg/kg/injection, schedule: Q01DX009 (ip), vehicle: saline with Tween-80
[6] = dose: 200.0 mg/kg/injection, schedule: Q01DX009 (ip), vehicle: saline with Tween-80

Measured: T/C

ON=C(c1ccccn1)c1ccccn1
inactive: dose: 100.0 mg/kg/injection, schedule: Q04DX003 (ip), vehicle: gum acacia 100 % of control | dose: 200.0 mg/kg/injection, schedule: Q04DX003 (ip), vehicle: gum acacia 104 % of control | dose: 400.0 mg/kg/injection, schedule: Q04DX003 (ip), vehicle: gum acacia 104 % of control

c1ccc2c(c1)Sc1ccccc1N2CC1CCCN2CCCCC12 (configuration not stated)
inactive: dose: 12.5 mg/kg/injection, schedule: Q01DX001 (ip), vehicle: Klucel (hydroxypropylcellulose) (HPC) 106 % of control | dose: 25.0 mg/kg/injection, schedule: Q01DX001 (ip), vehicle: Klucel (hydroxypropylcellulose) (HPC) 100 % of control | dose: 50.0 mg/kg/injection, schedule: Q01DX001 (ip), vehicle: Klucel (hydroxypropylcellulose) (HPC) 93 % of control

CC(C(=O)O)c1ccccc1 (configuration not stated)
inactive: dose: 50.0 mg/kg/injection, schedule: Q01DX009 (ip), vehicle: other 101 % of control | dose: 100.0 mg/kg/injection, schedule: Q01DX009 (ip), vehicle: other 106 % of control | dose: 200.0 mg/kg/injection, schedule: Q01DX009 (ip), vehicle: other 110 % of control

O=c1ccccn1CC1(c2ccccc2)OCCO1
inactive: dose: 100.0 mg/kg/injection, schedule: Q01DX009 (ip), vehicle: Klucel (hydroxypropylcellulose) (HPC) 95 % of control | [1] 91 % of control | [2] 95 % of control

CC(C)Cn1cnc2c(Sc3c([N+](=O)[O-])ncn3C)nc(N)nc21
inactive: dose: 67.0 mg/kg/injection, schedule: Q01DX009 (ip), vehicle: Klucel (hydroxypropylcellulose) (HPC) 115 % of control | [1] 91 % of control and 104 % of control | [2] 86 % of control | dose: 400.0 mg/kg/injection, schedule: Q04DX003 (ip), vehicle: Klucel (hydroxypropylcellulose) (HPC) 118 % of control

Cc1ccc(NC(=O)Oc2ccc(Br)cc2Br)c([N+](=O)[O-])c1
inactive: [3] 122 % of control

O=Cc1ccc(C=O)c(Cl)c1
inactive: [4] 104 % of control | [5] 90 % of control | dose: 88.0 mg/kg/injection, schedule: Q04DX003 (ip), vehicle: saline sonified 105 % of control | [3] 118 % of control | dose: 132.0 mg/kg/injection, schedule: Q04DX003 (ip), vehicle: saline sonified 100 % of control | dose: 200.0 mg/kg/injection, schedule: Q04DX003 (ip), vehicle: saline sonified 100 % of control | dose: 300.0 mg/kg/injection, schedule: Q04DX003 (ip), vehicle: saline sonified 120 % of control

O=C1CCC([N+](=O)[O-])C(c2ccccc2Cl)N1 (configuration not stated)
inactive: [5] 99 % of control | [3] 86 % of control | [6] 94 % of control

O=C1CN(C2CCCCC2)CC(=O)N2C(c3ccccc3)CCCN12 (configuration not stated)
inactive: dose: 50.0 mg/kg/injection, schedule: Q01DX005 (ip), vehicle: saline with Tween-80 97 % of control | dose: 100.0 mg/kg/injection, schedule: Q01DX005 (ip), vehicle: saline with Tween-80 103 % of control | dose: 200.0 mg/kg/injection, schedule: Q01DX005 (ip), vehicle: saline with Tween-80 118 % of control

c1ccc2cc3c(cc2c1)Cn1c-3nc2ccccc21
inactive: [3] 100 % of control | [6] 100 % of control | dose: 400.0 mg/kg/injection, schedule: Q01DX009 (ip), vehicle: saline with Tween-80 95 % of control

COCC(N)=O
inactive: dose: 100.0 mg/kg/injection, schedule: Q01DX009 (ip), vehicle: saline 106 % of control | dose: 200.0 mg/kg/injection, schedule: Q01DX009 (ip), vehicle: saline 97 % of control | dose: 400.0 mg/kg/injection, schedule: Q01DX009 (ip), vehicle: saline 113 % of control

O=C(NO)/C(Cc1ccccc1)=N/O
inactive: [5] 99 % of control | [3] 104 % of control | [6] 98 % of control

c1ccc(N=N/C(=N\Nc2ccccc2)SCCS/C(N=Nc2ccccc2)=N/Nc2ccccc2)cc1
inactive: [4] 99 % of control | [5] 99 % of control | [3] 121 % of control
